Broadly, the Ki is a measure of affinity in units of concentration, obtained from inhibition or displacement. Broadly, the IC50 is the midpoint of a concentration-inhibition curve.

The target in one experiment is T1, hBuChE (Homo sapiens, UniProt P06276).
T1 construct: was used as a source of BChE and was prepared from heparinized human blood; from tissue; host or cells: human plasma from heparinized human blood
As to the kind of experiment: Kinetic study of hBuChE inhibition. The experiment is classed as biochemical. Here is the method: Compound 6, the derivative with the most robust inhibitory activity, was subjected to enzyme kinetics analysis to determine the mode of hBuChE inhibition. Inhibition kinetics were elucidated from velocity curves that were measured at several concentrations of substrate butyrylthiocholine and test compound. The type of enzyme inhibition and corresponding kinetic parameters (Ki and Ki′) were determined by nonlinear regression analysis. Results for each type of model of inhibition (competitive, non-competitive, uncompetitive, and mixed) were compared by the sum-of-squares F-test. […].
Kinetic studies employed the same procedure that was previously described. Supplementary Materials provides details of this assay.
Biological assays in detail hAChE and hBuChE Inhibition Assay
The inhibitory activities of prepared compounds and standards against human recombinant AChE (E.C.
3.1.1.7) and human plasma BChE (E.C. 3.1.1.8) were determined using modified Ellman’s method […]
cholinesterase activity). Human recombinant AChE, phosphate buffer (PB, pH = 7.4), 5,5’ -dithio-bis(2-nitrobenzoic) acid (Ellman’s reagent, DTNB), acetylthiocholine (ATCh), butyrylthiocholine (BTCh), and other used compounds were purchased from Sigma-Aldrich (Prague, Czech Republic). […]
The solutions of she corresponding cholinesterase in PB were prepared up to the final activity 0.002 U/µL. […] The increase of absorbance was measured at 412 nm using Multimode microplate reader Synergy 2 (BioTek Inc., Winooski, VT, USA). For the calculation of the resulting measured activity (the percentage of inhibition I) following formula was used: […]
where ΔAi indicates absorbance change provided by adequate enzyme exposed to corresponding inhibitor and ΔA0 indicates absorbance change when a solution of PB was added instead of a solution of inhibitor. […]
The kinetic study hBuChE was performed by using above mentioned modified Ellman’s method. The values of Vmax and Km of the Michaelis-Menten kinetics as well as the values of Ki and Ki’ were calculated by nonlinear regression from the substrate velocity curves. […]

The target in experiment [1] is POP (prolyloligopeptidase) (Homo sapiens, UniProt P48147). As to the kind of experiment: POP inhibition assay. The experiment is classed as biochemical. The settings on record: bounds marked f: highest tested concentration due to low solubility in buffer; read-out: IC50, POP ± SEM. Here is the method:
The previously applied procedure was used. Detailed description of the assay can be found in Supplementary Materials.
POP (EC 3.4.21.26) was dissolved in phosphate-buffered saline (PBS; 0.01 M Na/K phosphate buffer, […]
The assay was performed in standard polystyrene 96-well microplates with a flat and clear bottom.
Stock solutions of tested compounds were prepared in DMSO (10 mM). Dilutions (10−3 to 10−7 M) were prepared from the stock solution with deionized H2O; the control was performed with the same DMSO concentration. POP substrate, (Z)-Gly-Pro-p-nitroanilide, was dissolved in 50% 1,4-dioxane (5 mM). For each reaction, PBS (170 μL), tested compound (5 μL), and POP (5 μL) were incubated for 5 min at 37 °C. Then, substrate (20 μL) was added, and the microplate was incubated for 30 min at 37 °C. The formation of p-nitroanilide, directly proportional to the POP activity, was measured […]
Synergy 2, BioTek Instruments, Winooski, VT). The inhibition potency of tested compounds was calculated by nonlinear regression analysis and was expressed as an IC50 value (concentration of inhibitor which causes 50% POP inhibition). […]

Sequence of POP (prolyloligopeptidase) (P48147 whole entry): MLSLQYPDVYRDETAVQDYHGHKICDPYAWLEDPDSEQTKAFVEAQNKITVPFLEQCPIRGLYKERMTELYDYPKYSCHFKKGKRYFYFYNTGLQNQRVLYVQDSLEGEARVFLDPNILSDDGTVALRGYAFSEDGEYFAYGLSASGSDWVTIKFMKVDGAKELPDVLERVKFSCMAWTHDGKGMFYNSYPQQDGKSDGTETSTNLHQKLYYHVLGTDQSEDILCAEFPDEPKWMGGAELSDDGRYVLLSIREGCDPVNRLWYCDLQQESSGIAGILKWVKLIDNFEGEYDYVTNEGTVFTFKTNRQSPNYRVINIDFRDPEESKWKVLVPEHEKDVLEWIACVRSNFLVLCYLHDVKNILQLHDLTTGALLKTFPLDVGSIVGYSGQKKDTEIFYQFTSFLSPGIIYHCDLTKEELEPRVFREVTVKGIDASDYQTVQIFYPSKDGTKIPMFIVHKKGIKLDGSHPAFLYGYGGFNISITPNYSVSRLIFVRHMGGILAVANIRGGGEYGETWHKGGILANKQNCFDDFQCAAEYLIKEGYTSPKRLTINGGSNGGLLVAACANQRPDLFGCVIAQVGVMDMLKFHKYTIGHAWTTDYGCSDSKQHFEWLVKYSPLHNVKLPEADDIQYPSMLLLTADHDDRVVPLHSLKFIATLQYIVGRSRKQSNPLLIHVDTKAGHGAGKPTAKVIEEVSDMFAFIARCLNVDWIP

With `C=CCOc1ccc(CCN(CC=C)Cc2ccc(OC)c(OCc3ccccc3)c2)cc1` [Compound 6, N-allyl-N-(3-benzyloxy-4-methoxybenzyl)-2-(4-allyloxyphenyl)ethan-1-amine], at hBuChE (hBuChE, enzyme-substrate complex, nonlinear regression), the “Ki′” value amounted to 347 ± 79 nM. Also, at hBuChE (hBuChE, substrate butyrylthiocholine, nonlinear regression), the Ki turned out to be 60.3 ± 11.6 nM. Besides, the “type of hBuChE inhibition” value on hBuChE (sum-of-squares F-test, p < 0.05, Lineweaver–Burk plot) is on record as “mixed type of inhibition”. The IC50 in experiment [1] was above 79000 nM.
